Assay results published in publication PMC9516381 (Biochemistry and Biophysics Reports, 2022).
Like-named read-outs stand apart in the source and are kept apart here.

Key:
h2E2 anti-cocaine mAb [1] = test: Isothermal titration calorimetry; assay type: binding; settings: ITC, PBS, 20°C, mean ± SD of 4 experiments; for ΔG: calculated as ΔG = ΔH – TΔS; for Kd: reciprocal of fitted K
h2E2 anti-cocaine mAb [2] = settings: intrinsic fluorescence quenching, 20 °C, TBS buffer; cited from earlier work
mAb08 anti-cocaine mAb = settings: ITC; cited from earlier work
h2E2 Fc fragment = h2E2 Fc fragment (Homo sapiens, UniProt P01857); test: ITC of ligand binding to h2E2 Fc fragment; settings: PBS pH 7.4, 20°C
h2E2 Fc fragment, sequence (P01857 1-330 isoform P01857-1): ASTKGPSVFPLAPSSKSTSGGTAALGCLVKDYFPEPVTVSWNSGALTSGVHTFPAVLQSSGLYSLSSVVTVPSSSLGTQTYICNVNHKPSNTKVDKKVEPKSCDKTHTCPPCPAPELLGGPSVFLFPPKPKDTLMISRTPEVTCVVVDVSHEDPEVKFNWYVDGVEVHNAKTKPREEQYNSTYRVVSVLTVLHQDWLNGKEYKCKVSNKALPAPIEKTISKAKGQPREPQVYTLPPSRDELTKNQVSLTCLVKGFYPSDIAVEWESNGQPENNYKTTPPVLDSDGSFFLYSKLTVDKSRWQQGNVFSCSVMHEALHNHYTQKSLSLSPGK

SMILES | ΔG (h2E2 anti-cocaine mAb [1]) | K (association) (h2E2 anti-cocaine mAb [1]) | ΔH (h2E2 anti-cocaine mAb [1]) | ΔS (h2E2 anti-cocaine mAb [1]) | ΔH (h2E2 anti-cocaine mAb [1]; listed as benzoylecgonine) | Kd (h2E2 anti-cocaine mAb [1]) | Kd (h2E2 anti-cocaine mAb [2]) | ΔH (h2E2 anti-cocaine mAb [1]; listed as cocaine) | Kd (h2E2 anti-cocaine mAb [1]; listed as cocaine) | Kd (mAb08 anti-cocaine mAb) | binding to the Fc fragment (h2E2 Fc fragment)
CN1[C@H]2CC[C@@H]1[C@@H](C(=O)O)[C@@H](OC(=O)c1ccccc1)C2 [Benzoylecgonine, benzoylecgonine] | -9.755 ± 0.106 kcal/mol | 1.88e+07 ± 3.26e+06 M⁻¹ | -15.44 ± 0.833 kcal/mol | −19.4 ± 2.5 cal/mol/deg | ≈ -15,400 cal/mol | 54.4 ± 8.77 nM | ~20 nM |  |  |  | 
CCOC(=O)[C@@H]1C2CCC(C[C@@H]1OC(=O)c1ccccc1)N2C (stereo partly drawn) [Cocaethylene, cocaethylene] | -11.152 ± 0.302 kcal/mol | 2.31e+08 ± 1.3e+08 M⁻¹ | -13.988 ± 0.279 kcal/mol | −9.67 ± 1.98 cal/mol/deg |  | 5.29 ± 2.4 nM | ~1 nM |  |  |  | 
COC(=O)[C@H]1[C@@H](OC(=O)c2ccccc2)C[C@@H]2CC[C@H]1N2C [Cocaine, cocaine] | -10.881 ± 0.187 kcal/mol | 1.33e+08 ± 4.54e+07 M⁻¹ | -15.41 ± 0.368 kcal/mol | −15.4 ± 1.8 cal/mol/deg |  | 8.13 ± 2.37 nM | ~4 nM | ≈ -15,400 cal/mol | ~8 nM | 2.5 nM | 
COC(=O)[C@@H]1[C@H]2CC[C@@H](C[C@@H]1O)N2C [Ecgonine Methyl Ester, ecgonine methyl ester] | -6.381 ± 0.247 kcal/mol | 61375 ± 25024 M⁻¹ | -2.336 ± 0.452 kcal/mol | 13.80 ± 2.33 cal/mol/deg |  | 18700 ± 8310 nM |  |  |  |  | no EME binding to the Fc fragment
COC(=O)[C@H]1[C@@H](OC(=O)c2ccccc2)C[C@@H]2CC[C@H]1N2 [Norcocaine, norcocaine] | -7.85 ± 0.027 kcal/mol | 704500 ± 36098 M⁻¹ | -3.064 ± 0.15 kcal/mol | 16.3 ± 0.58 cal/mol/deg |  | 1420 ± 72 nM |  |  |  |  | 
